US9115122B2, “Non-ATP dependent inhibitors of extracellular signal-regulated kinase (ERK)” (UNIVERSITY OF MARYLAND, BALTIMORE, priority 2012, dated 2015)
Where two headings read alike, the source gives them in different places.

Columns and labels:
Format in all cases: cell-based
Jurkat cells = assay: Dose-response growth inhibition (GI50) of select compounds
A375 melanoma cells [1] = assay: as above; conditions: two days
Protocol: (§1) An example of the dose response curve for compound 30h and the BRaf inhibitor PLX4032 for inhibiting the growth of melanoma cell lines is shown in FIG. 14. […] A summary of GI50 values for select compounds along with comparisons to know ERK pathway inhibitors in various cell lines is shown in Table 13. […] First, thiazolidinedione compounds have been identified to be selective inhibitors of cancer cell lines containing activated ERK signaling. Second, changes in the 4-ethoxyphenyl component of the parent compound 76 improve selectivity and potency for inhibiting melanoma cell growth. Third, compound 30h is a potent inhibitor of melanoma cell lines that have become resistant to the clinically relevant BRaf and MEK inhibitors. […] Lastly, 30h is as potent as the ATP-competitive pyrazolopyridazinamine ERK inhibitor (FR180204) in preventing melanoma cell proliferation and provides an alternative non-ATP-dependent approach to target cancer cells that are dependent on active ERK signaling.
(§2) Melanoma cells (A375, SK-MEL-28, and RPMI7951) were seeded at a density of 5,000 per well in 96-well plate. After overnight incubation, cells were treated with varying doses of PLX4032 (A) or 31h (B) for two days. Cell viability was determined by the addition of Cell Titer-Blue Reagent (20 μL/well) followed by 2 hours of incubation at 37° C. after which fluorescence was recorded (555/585 nm). Cell viability was expressed as percentage of vehicle control and data represent the average of three individual experiments.

SK-MEL-28 melanoma cells [2] = assay: as above; conditions: two days
Protocol: as §1, §2

RPMI7951 melanoma cells = assay: as above; conditions: two days
Protocol: as §1, §2

HeLa cells = assay: as above
A375 melanoma cells [3] = assay: Cell proliferation WST-1 assay, single dose (Example 4); conditions: 100 μM, 48 hours
Method in brief: (§3)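 Proliferation is measured by WST-1 reduction: after roughly 5000 cells per well rest 16-20 hours, they receive compound for 48 hours, and the signal is normalized to DMSO control.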

[4] = tested on: HeLa cervical carcinoma cells; assay: as above; conditions: 100 μM, 48 hours
Method in brief: as §3

SK-MEL-28 melanoma cells [5] = assay: as above; conditions: 100 μM, 48 hours
Method in brief: as §3

[6] = tested on: Jurkat T-cell leukemia cells; assay: as above; conditions: 100 μM, 48 hours
Method in brief: as §3

RPMI-7951 melanoma cells = assay: as above; conditions: 100 μM, 48 hours
Method in brief: as §3

HL-60 leukemic cells = assay: as above; conditions: 100 μM, 48 hours
Method in brief: as §3

[7] = tested on: serum response element (SRE); assay: SRE promoter luciferase assay, HeLa cells (Example 4); conditions: EGF
Protocol: HeLa cells were seeded in 24-well plates (4×10^4 cells/well) and incubated 18 hours prior to achieve ˜60-70% confluent. Cells were transfected with activator protein-1 (pAP1(PMA)-TA-Luc; Clontech) or the serum response element (pGL4.33-SRE; Promega) luciferase reporter plasmids (250 ng/well) using Lipofectamine™ (Invitrogen). After 16 hours, cells were treated with increasing amount of compounds as indicated for 20 minutes, followed by stimulation with EGF (25 ng/mL) for 4.5 hr. The luciferase activity in the cell extracts was determined with a Dual Luciferase Assay System (Promega) according to the manufacturer's instructions. Luciferase activities were monitored with a Lumat LB 9507 luminometer (Berthold Technology) and data were normalized to the amount of protein in each sample.

Compound | GI50 (Jurkat cells; Homo sapiens, Jurkat) [µM] | GI50 (A375 melanoma cells [1]; Homo sapiens, A-375, 48 h) [nM] | GI50 (SK-MEL-28 melanoma cells [2]; Homo sapiens, SK-MEL-28, 48 h) [nM] | GI50 (RPMI7951 melanoma cells; Homo sapiens, RPMI-7951, 48 h) [µM] | GI50 (HeLa cells; Homo sapiens, HeLa) [µM] | Cell Viability (% of Vehicle) A375 (A375 melanoma cells [3]) | Cell Viability (% of Vehicle) HeLa [4] | Cell Viability (% of Vehicle) SK-MEL-28 (SK-MEL-28 melanoma cells [5]) | Cell Viability (% of Vehicle) Jurkat [6] | Cell Viability (% of Vehicle) RPMI-7951 (RPMI-7951 melanoma cells) | Cell Viability (% of Vehicle) HL-60 (HL-60 leukemic cells) | inhibition of ERK-mediated SRE promoter activity [7] | GI50 (Jurkat cells) [µM] | GI50 (A375 melanoma cells [1]) [nM] | GI50 (SK-MEL-28 melanoma cells [2]) [nM] | GI50 (RPMI7951 melanoma cells) [µM] | GI50 (HeLa cells) [µM]
Cn1cnc2c(F)c(Nc3ccc(Br)cc3Cl)c(C(=O)NOCCO)cc21 [AZD6244, reference compound] | > 10 | 30 | 170 | 20 | > 10 | – | – | – | – | – | – | – | – | – | – | – | –
CCOc1ccc(/C=C2\SC(=O)N(CCCN)C2=O)cc1 [Compound 22a, (Z)-3-(3-aminopropyl)-5-(4-ethoxybenzylidene)thiazolidine-2,4-dione] | – | 24000 | 46000 | 17 | – | 0.7 ± 0.1 % of Vehicle | 12 ± 2 % of Vehicle | 0.5 ± 0.01 % of Vehicle | 9.0 ± 2 % of Vehicle | 0.6 ± 0.1 % of Vehicle | 8.0 ± 72 % of Vehicle | selective inhibition of the SRE promoter activity | – | – | – | – | –
CCOc1ccc(/C=C2\SC(=O)N(Cc3ccccc3C(=O)O)C2=O)cc1 [Compound 28s, (Z)-2-((5-(4-ethoxybenzylidene)-2,4-dioxothiazolidin-3-yl)methyl)benzoic acid] | – | – | – | – | – | 39 ± 1 % of Vehicle | 61 ± 4 % of Vehicle | 49 ± 8 % of Vehicle | 46 ± 1 % of Vehicle | 45 ± 8 % of Vehicle | 31 ± 15 % of Vehicle | – | – | – | – | – | –
NCCN1C(=O)S/C(=C\c2ccccc2)C1=O [Compound 30a, (Z)-3-(2-aminoethyl)-5-benzylidenethiazolidine-2,4-dione] | – | – | – | – | – | 82 ± 9 % of Vehicle | 82 ± 10 % of Vehicle | 88 ± 7 % of Vehicle | 88 ± 4 % of Vehicle | 89 ± 17 % of Vehicle | 28 ± 20 % of Vehicle | – | – | – | – | – | –
CCOc1cccc(/C=C2\SC(=O)N(CCN)C2=O)c1 [Compound 30b, (Z)-3-(2-aminoethyl)-5-(3-ethoxybenzylidene)thiazolidine-2,4-dione] | – | – | – | – | – | 19 ± 3 % of Vehicle | 40 ± 1 % of Vehicle | 36 ± 6 % of Vehicle | 54 ± 5 % of Vehicle | 30 ± 2 % of Vehicle | 4.8 ± 2 % of Vehicle | – | – | – | – | – | –
CCOc1ccccc1/C=C1\SC(=O)N(CCN)C1=O [Compound 30c, (Z)-3-(2-aminoethyl)-5-(2-ethoxybenzylidene)thiazolidine-2,4-dione] | – | – | – | – | – | 22 ± 9 % of Vehicle | 39 ± 3 % of Vehicle | 52 ± 11 % of Vehicle | 66 ± 5 % of Vehicle | 45 ± 2 % of Vehicle | 8.9 ± 4 % of Vehicle | – | – | – | – | – | –
Cc1ccc(/C=C2\SC(=O)N(CCN)C2=O)cc1 [Compound 30d, (Z)-3-(2-aminoethyl)-5-(4-methylbenzylidene)thiazolidine-2,4-dione] | – | – | – | – | – | 23 ± 6 % of Vehicle | 54 ± 3 % of Vehicle | 31 ± 7 % of Vehicle | 71 ± 6 % of Vehicle | 23 ± 1 % of Vehicle | 4.8 ± 2 % of Vehicle | – | – | – | – | – | –
CCCc1ccc(/C=C2\SC(=O)N(CCN)C2=O)cc1 [Compound 30e, (Z)-3-(2-aminoethyl)-5-(4-propylbenzylidene)thiazolidine-2,4-dione] | – | – | – | – | – | 0.6 ± 0.1 % of Vehicle | 11 ± 2 % of Vehicle | 0.6 ± 0.4 % of Vehicle | 16 ± 8 % of Vehicle | 0.7 ± 0.1 % of Vehicle | 5.9 ± 2 % of Vehicle | – | – | – | – | – | –
NCCN1C(=O)S/C(=C\c2ccc(O)cc2)C1=O [Compound 30f, (Z)-3-(2-aminoethyl)-5-(4-hydroxybenzylidene)thiazolidine-2,4-dione] | – | – | – | – | – | 8.8 ± 2 % of Vehicle | 63 ± 10 % of Vehicle | 38 ± 3 % of Vehicle | 96 ± 3 % of Vehicle | 24 ± 5 % of Vehicle | 17 ± 12 % of Vehicle | – | – | – | – | – | –
NCCN1C(=O)S/C(=C\c2ccccc2O)C1=O [Compound 30i, (Z)-3-(2-aminoethyl)-5-(2-hydroxybenzylidene)thiazolidine-2,4-dione] | – | – | – | – | – | 78 ± 3 % of Vehicle | 68 ± 3 % of Vehicle | 85 ± 9 % of Vehicle | 99 ± 5 % of Vehicle | 102 ± 10 % of Vehicle | 24 ± 8 % of Vehicle | – | – | – | – | – | –
CC(C)COc1ccccc1/C=C1\SC(=O)N(CCN)C1=O [Compound 30j, (Z)-3-(2-aminoethyl)-5-(2-isobutoxybenzylidene)thiazolidine-2,4-dione] | – | – | – | – | – | 0.8 ± 0.02 % of Vehicle | 0.8 ± 0.1 % of Vehicle | 1.0 ± 0.1 % of Vehicle | 1.8 ± 0.1 % of Vehicle | 1.0 ± 0.04 % of Vehicle | 9.5 ± 3.4 % of Vehicle | – | – | – | – | – | –
NCCN1C(=O)S/C(=C\c2ccccc2OCc2ccccc2)C1=O [Compound 30k, (Z)-3-(2-aminoethyl)-5-(2-(benzyloxy)benzylidene)thiazolidine-2,4-dione] | – | – | – | – | – | 0.6 ± 0.03 % of Vehicle | 0.6 ± 0.1 % of Vehicle | 0.6 ± 0.04 % of Vehicle | 1.5 ± 0.1 % of Vehicle | 0.9 ± 0.1 % of Vehicle | 8.3 ± 3.4 % of Vehicle | – | – | – | – | – | –
N#Cc1ccc(COc2ccccc2/C=C2\SC(=O)N(CCN)C2=O)cc1 [Compound 30l, (Z)-4-((2-((3-(2-aminoethyl)-2,4-dioxothiazolidin-5-ylidene)methyl)phenoxy)methyl)benzonitrile] | – | – | – | – | – | 0.5 ± 0.04 % of Vehicle | 8.0 ± 2 % of Vehicle | 0.5 ± 0.01 % of Vehicle | 6.7 ± 1 % of Vehicle | 0.6 ± 0.03 % of Vehicle | 5.7 ± 2 % of Vehicle | – | – | – | – | – | –
Nc1[nH]nc2nnc(-c3c(-c4ccccc4)nn4ccccc34)cc12 [FR180204, reference compound] | – | – | – | – | – | – | – | – | – | – | – | – | > 10 | 5000 | 4000 | 11 | > 10
CCCS(=O)(=O)Nc1ccc(F)c(C(=O)c2c[nH]c3ncc(-c4ccc(Cl)cc4)cc23)c1F [PLX4032, reference compound] | > 10 | 70 | 380 | 11 | > 10 | – | – | – | – | – | – | – | – | – | – | – | –
